Laboratory results published in the NIST ThermoML archive (doi:10.1021/je034290l).

How the values were obtained:
[1] = Liquid
[2] = refractive index (Na D-line) (dimensionless); conditions: 318.15 K; 101.33 kPa; Liquid; Standard Abbe refractometry

CCC(=O)OC [methyl propanoate]
Conditions | mass density [kg/m3]
[1], 318.15 K, 101.33 kPa | 884.3

[1]
Conditions | vapor or sublimation pressure [kPa]
325.88 K | 40.08
327.07 K | 42.57
328.03 K | 44.13
329 K | 45.29
329.68 K | 46.72
330.24 K | 47.97
330.7 K | 49.34
332 K | 50.58
332.74 K | 51.89
333.19 K | 53.37
334.04 K | 54.63
334.49 K | 55.93
335.63 K | 57.49
335.97 K | 58.57
336.7 K | 60.05
337.5 K | 61.5
338.06 K | 62.73
338.52 K | 64.17
339.43 K | 66.58
339.71 K | 67.89
340.73 K | 69.17
341.07 K | 70.53
341.52 K | 71.89
341.72 K | 72.42
342.35 K | 73.37
342.6 K | 75.37
342.88 K | 75.83
343.25 K | 75.91
343.95 K | 77.99
344.15 K | 78.43
344.25 K | 78.74
344.75 K | 79.89
345.4 K | 82.35
345.65 K | 82.59
346.32 K | 84.18
346.57 K | 85.43
346.65 K | 86.74
347.23 K | 87.87
347.4 K | 88.1
348.15 K | 90.74
348.73 K | 91.95
348.98 K | 93.23
349.23 K | 94.6
349.73 K | 96.03
350.23 K | 97.26
350.59 K | 98.7
350.99 K | 100
351.65 K | 101.32
352.23 K | 102.75
352.4 K | 103.87
352.82 K | 105.43
352.9 K | 106.58
353.73 K | 107.82
353.82 K | 109.39
354.15 K | 110.78
354.57 K | 112.07
354.82 K | 113.15
355.65 K | 114.82
355.74 K | 115.9
355.82 K | 117.13
356.32 K | 118.57
356.9 K | 120.15
357.15 K | 121.17
357.39 K | 122.81
357.9 K | 123.81
358.24 K | 124.65
358.48 K | 126.73
358.65 K | 127.87
358.98 K | 129.37
359.32 K | 130.43
359.48 K | 130.89
359.98 K | 133.25
360.4 K | 134.57
360.57 K | 135.81
361.08 K | 137.35
361.4 K | 138.56
361.73 K | 140
361.9 K | 141.21
362.44 K | 142.57
362.57 K | 144.11
363.07 K | 145.35
363.4 K | 146.48
363.73 K | 148.09
363.91 K | 149.39
364.4 K | 151.04
364.57 K | 152.48
364.9 K | 153.26
364.99 K | 154.82
365.38 K | 156.06
365.48 K | 156.17
365.82 K | 158.49
365.9 K | 159.73
366.15 K | 160.57
366.57 K | 162.57
366.65 K | 163.38
367.15 K | 165.17
367.4 K | 166.74
367.82 K | 167.89

Conditions | refractive index
[2] | 1.3641
